Source: ChEMBL document CHEMBL3045516, “Field study of the relative susceptibility of eleven potato (Solanum tuberosum L.) varieties and the efficacy of two fungicides against Rhizoctonia solani attack” (2010)

Key:
Assay type in all cases: functional
Rhizoctonia solani [1] = assay: Fungicidal activity against Rhizoctonia solani assessed as level-2 black scurf infected potato Nicola progeny tubers using 25% active ingredient containing compound treated potato seeds under field trial conditions (reference value: 17.9%)
Rhizoctonia solani [2] = assay: Fungicidal activity against Rhizoctonia solani assessed as level-2 black scurf infected potato Nicola progeny tubers using in-furrow application of 25% active ingredient containing compound under field trial conditions (reference value: 17.9%)
Rhizoctonia solani [3] = assay: Fungicidal activity against Rhizoctonia solani assessed as level-4 black scurf infected potato Nicola progeny tubers using 25% active ingredient containing compound treated potato seeds and in-furrow compound application under field trial conditions (reference value: 59.7%)
Rhizoctonia solani [4] = assay: Fungicidal activity against Rhizoctonia solani assessed as level-1 black scurf infected potato Nicola progeny tubers using 25% active ingredient containing compound treated potato seeds and in-furrow compound application under field trial conditions (reference value: 0.0%)
Rhizoctonia solani [5] = assay: Fungicidal activity against Rhizoctonia solani assessed as level-3 black scurf infected potato Nicola progeny tubers using in-furrow application of 25% active ingredient containing compound under field trial conditions (reference value: 22.4%)
Rhizoctonia solani [6] = assay: Fungicidal activity against Rhizoctonia solani assessed as level-1 black scurf infected potato Nicola progeny tubers using in-furrow application of 25% active ingredient containing compound under field trial conditions (reference value: 0.0%)
Rhizoctonia solani [7] = assay: Fungicidal activity against Rhizoctonia solani assessed as level-1 black scurf infected potato Nicola progeny tubers using 25% active ingredient containing compound treated potato seeds under field trial conditions (reference value: 0.0%)
Rhizoctonia solani [8] = assay: Fungicidal activity against Rhizoctonia solani assessed as level-2 black scurf infected potato Nicola progeny tubers using 25% active ingredient containing compound treated potato seeds and in-furrow compound application under field trial conditions (reference value: 17.9%)
Rhizoctonia solani [9] = assay: Fungicidal activity against Rhizoctonia solani assessed as level-3 black scurf infected potato Nicola progeny tubers using 25% active ingredient containing compound treated potato seeds under field trial conditions (reference value: 22.4%)
Rhizoctonia solani [10] = assay: Fungicidal activity against Rhizoctonia solani assessed as level-4 black scurf infected potato Nicola progeny tubers using in-furrow application of 25% active ingredient containing compound under field trial conditions (reference value: 59.7%)
Rhizoctonia solani [11] = assay: Fungicidal activity against Rhizoctonia solani assessed as level-3 black scurf infected potato Nicola progeny tubers using 25% active ingredient containing compound treated potato seeds and in-furrow compound application under field trial conditions (reference value: 22.4%)
Rhizoctonia solani [12] = assay: Fungicidal activity against Rhizoctonia solani assessed as level-4 black scurf infected potato Nicola progeny tubers using 25% active ingredient containing compound treated potato seeds under field trial conditions (reference value: 59.7%)

Row | SMILES | Activity (Rhizoctonia solani [1]) [%] | Activity (Rhizoctonia solani [2]) [%] | Activity (Rhizoctonia solani [3]) [%] | Activity (Rhizoctonia solani [4]) [%] | Activity (Rhizoctonia solani [5]) [%] | Activity (Rhizoctonia solani [6]) [%] | Activity (Rhizoctonia solani [7]) [%] | Activity (Rhizoctonia solani [8]) [%] | Activity (Rhizoctonia solani [9]) [%] | Activity (Rhizoctonia solani [10]) [%] | Activity (Rhizoctonia solani [11]) [%] | Activity (Rhizoctonia solani [12]) [%]
1 | CO/C=C(\C(=O)OC)c1ccccc1Oc1cc(Oc2ccccc2C#N)ncn1 [Azoxystrobin] | 90 | 31 | 0.01 | 16.7 | 69 | 0.01 | 0.01 | 83.3 | 0.01 | 0.01 | 0.01 | 10
2 | O=C(Nc1ccccc1)N(Cc1ccc(Cl)cc1)C1CCCC1 [PENCYCURON] | 70.8 | – | – | – | – | – | 8.1 | – | 19.7 | – | – | 1.4
